One data set has as its system sweet taste responses. Kind of data set: sweet taste response inhibition test. It is filed as in vivo. The note with it: for taste of Aqueous Sucrose Solution, panelists ①②③④⑤: after 0.08% sample solution kept in mouth 2 min. The procedure: A sweet taste response inhibition test was effected for the triterpenoid saponin of the present invention and Gymnemic acid 1 and Gymnemic acid 2 obtained from Gymnema sylvestre, R. Br. known to have an inhibitory effect on glucose adsorption.
The triterpenoid saponin prepared in Example 1 and Gymnemic acid 1 and Gymnemic acid 2 were dissolved in a 0.01 M/liter aqueous sodium bicarbonate (NaHCO₃) solution to prepare a 0.08% triterpenoid saponin solution, a 0.08% Gymnemic acid 1 solution and a 0.08 % Gymnemic acid 2 solution.
Separately, 0.1 M/liter, 0.2 M/liter, 0.3 M/liter, 0.4 M/liter and 0.5 M/liter aqueous sucrose solutions were previously prepared. The sweet taste response inhibition test was effected according to the following procedure.
• 1) 5 ml of the triterpenoid saponin solution or Gymnemic acid 1 or 2 solution was kept in mouth so that it was spread in the whole mouth. • 2) 2 min after that, the sample solution was spit out, and the mouth was sufficiently rinsed with distilled water. • 3) The above-described aqueous sucrose solutions were successively kept in the mouth in the order of concentration from the lowest to the highest, and the sucrose concentration of the solution which was first sweet to the taste was recorded.

For the next data set, the system named is DDF male mice. Kind of data set: Acute toxicity test, forced oral administration. The note with it: for Number of dead animals: mouse, in vivo, po. The procedure: An acute toxicity test was effected by the following procedure.
Use was made of DDF male mice having a weight of 25 g, and each group consisted of 10 animals. The animals were ingested a solid feed (for breeding) while they freely got tap water as drinking water.
The triterpenoid saponin was suspended in 1% CMC physiological saline to a concentration of 200 mg/ml.
The test substance was administered with a probe by forced oral administration. The dose was 5000 mg/kg for one group and 2500 mg/kg for another group. Test period was 7 days. After the administration, the animals were continuously observed for 3 hr, and, thereafter, observation was effected of general symptoms every 6 hr.

Each structure is given as a SMILES string.

Take `CC1(C)CC[C@]2(CO)[C@@H](O)C[C@]3(C)C(=CC[C@@H]4[C@@]5(C)CC[C@H](O[C@@H]6O[C@H](C(=O)O)[C@@H](O)[C@H](O)[C@H]6O[C@@H]6O[C@H](CO)[C@@H](O)[C@H](O)[C@H]6O)C(C)(C)[C@@H]5CC[C@]43C)[C@@H]2C1` [triterpenoid saponin, (3β,16β)-16,28-dihydroxyolean-12-en-3-yl-2-O-β-D-glucopyranosyl-β-D-glucopyranosiduronic acid]: the “inhibitory effect on the sweet taste responses” value with sweet taste responses (0.08% sample solution) is on record as “no inhibitory effect on the sweet taste responses”. Moreover, the “taste of Aqueous Sucrose Solution, panelists ①②③④⑤” value in the data set with sweet taste responses (sucrose 0.1 M/liter) is “Δ○○Δ○”; in the data set on sweet taste responses (sucrose 0.2 M/liter) it was “○○○○○”. In addition, the Other general symptoms entry in the data set on DDF male mice (Dose 2500 mg/kg, oral, 7 days) is “Do”; in the data set with DDF male mice (Dose 5000 mg/kg, oral, 7 days), “None of the animals exhibited any abnormal symptom”. In addition, the toxicity entry with DDF male mice (acute toxicity test, oral, mice, 7 days) is “no toxicity was observed”. Moreover, the “Number of dead animals” value in the data set on DDF male mice (2500 mg/kg) and in the data set with DDF male mice (5000 mg/kg) was 0 each time.

For the origin of these results see patent EP0636633A1, “A triterpenoid saponin, extraction thereof and use to treat or prevent diabetes mellitus” (KOWA CHEMICAL INDUSTRIES CO., LTD., priority 1993, dated 1995).
